In patent publication US10358431B1, “Antimicrobials from an epigenetics based fungal metabolite screening program” (University of South Florida, priority 2015, dated 2019):
pIC50: −log10 of the molar value.

Assays:
MRSA [1] = assay: MRSA drug wash-out study / MBC99; assay type: cell-based, Staphylococcus aureus
Leishmania donovani = assay: Infected macrophage model of the Leishmania donovani parasite; assay type: cell-based; settings: for pIC50: read-out: L. donovani IC50
MRSA [2] = assay: Pure compound activity against MRSA (ESKAPE pathogens); assay type: cell-based, Staphylococcus aureus; settings: for pIC50: pure compound

Substance	pIC50 (Leishmania donovani)	pIC50 (MRSA [2])	other results
gentamicin [reference compound]	–	–	MRSA MBC99 (MRSA [1]): 20 µM
Phomopsichromin A [Compound 1]	5.52	3.29	–
Phomopsichromin B [Compound 2]	5.72	3.29	–
LL-Z1272ε [Compound 6]	–	–	activity towards the macrophages (macrophages): neither phomopsichromin D (4) nor LL-Z1272ε (6) showed any activity; L. donovani IC50 (μM) (Leishmania donovani): neither phomopsichromin D (4) nor LL-Z1272ε (6) showed any activity
Phomopsichromin C [Compound 3]	6.17	4.24	drug wash-out study: bactericidal or not (MRSA [1]): bactericidal; MIC against MRSA (MRSA [2]): 58 µM
Phomopsichromin D [Compound 4]	–	–	activity towards the macrophages (macrophages): neither phomopsichromin D (4) nor LL-Z1272ε (6) showed any activity; L. donovani IC50 (μM) (Leishmania donovani): neither phomopsichromin D (4) nor LL-Z1272ε (6) showed any activity
Phomopsichromin E [Compound 5]	6.10	3.29	–
